Results published in patent US12421225B2, “Heteroaromatic amide derivative and medicament containing the same” (KAKEN PHARMACEUTICAL CO., LTD., priority 2018, dated 2025).

Assays:
[1] = biological target: human Nav1.7 (Homo sapiens (Human), UniProt Q15858); test: Human Nav1.7 inhibitory activity evaluation (automated patch clamp QPatch16X, HEK293A cells stably expressing human Nav1.7 and human Navβ1); assay type: cell-based
Summary of the method: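 IC50 calculated from the concentration-response of inward current evoked by the second −10 mV, 50 ms depolarisation, which follows a 15 s conditioning step at roughly 30-40% inactivation and a 100 ms −120 mV interval. Cells: HEK293A expressing human Nav1.7/Navβ1, automated patch clamp, room temperature, 0.1% DMSO final.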

[2] = biological target: human Nav1.5 (Homo sapiens (Human), UniProt Q14524); test: Human Nav1.5 inhibitory activity evaluation (automated patch clamp QPatch16X, HEK293 cells stably expressing human Nav1.5); assay type: cell-based
Chain of human Nav1.5 (Q14524 whole entry): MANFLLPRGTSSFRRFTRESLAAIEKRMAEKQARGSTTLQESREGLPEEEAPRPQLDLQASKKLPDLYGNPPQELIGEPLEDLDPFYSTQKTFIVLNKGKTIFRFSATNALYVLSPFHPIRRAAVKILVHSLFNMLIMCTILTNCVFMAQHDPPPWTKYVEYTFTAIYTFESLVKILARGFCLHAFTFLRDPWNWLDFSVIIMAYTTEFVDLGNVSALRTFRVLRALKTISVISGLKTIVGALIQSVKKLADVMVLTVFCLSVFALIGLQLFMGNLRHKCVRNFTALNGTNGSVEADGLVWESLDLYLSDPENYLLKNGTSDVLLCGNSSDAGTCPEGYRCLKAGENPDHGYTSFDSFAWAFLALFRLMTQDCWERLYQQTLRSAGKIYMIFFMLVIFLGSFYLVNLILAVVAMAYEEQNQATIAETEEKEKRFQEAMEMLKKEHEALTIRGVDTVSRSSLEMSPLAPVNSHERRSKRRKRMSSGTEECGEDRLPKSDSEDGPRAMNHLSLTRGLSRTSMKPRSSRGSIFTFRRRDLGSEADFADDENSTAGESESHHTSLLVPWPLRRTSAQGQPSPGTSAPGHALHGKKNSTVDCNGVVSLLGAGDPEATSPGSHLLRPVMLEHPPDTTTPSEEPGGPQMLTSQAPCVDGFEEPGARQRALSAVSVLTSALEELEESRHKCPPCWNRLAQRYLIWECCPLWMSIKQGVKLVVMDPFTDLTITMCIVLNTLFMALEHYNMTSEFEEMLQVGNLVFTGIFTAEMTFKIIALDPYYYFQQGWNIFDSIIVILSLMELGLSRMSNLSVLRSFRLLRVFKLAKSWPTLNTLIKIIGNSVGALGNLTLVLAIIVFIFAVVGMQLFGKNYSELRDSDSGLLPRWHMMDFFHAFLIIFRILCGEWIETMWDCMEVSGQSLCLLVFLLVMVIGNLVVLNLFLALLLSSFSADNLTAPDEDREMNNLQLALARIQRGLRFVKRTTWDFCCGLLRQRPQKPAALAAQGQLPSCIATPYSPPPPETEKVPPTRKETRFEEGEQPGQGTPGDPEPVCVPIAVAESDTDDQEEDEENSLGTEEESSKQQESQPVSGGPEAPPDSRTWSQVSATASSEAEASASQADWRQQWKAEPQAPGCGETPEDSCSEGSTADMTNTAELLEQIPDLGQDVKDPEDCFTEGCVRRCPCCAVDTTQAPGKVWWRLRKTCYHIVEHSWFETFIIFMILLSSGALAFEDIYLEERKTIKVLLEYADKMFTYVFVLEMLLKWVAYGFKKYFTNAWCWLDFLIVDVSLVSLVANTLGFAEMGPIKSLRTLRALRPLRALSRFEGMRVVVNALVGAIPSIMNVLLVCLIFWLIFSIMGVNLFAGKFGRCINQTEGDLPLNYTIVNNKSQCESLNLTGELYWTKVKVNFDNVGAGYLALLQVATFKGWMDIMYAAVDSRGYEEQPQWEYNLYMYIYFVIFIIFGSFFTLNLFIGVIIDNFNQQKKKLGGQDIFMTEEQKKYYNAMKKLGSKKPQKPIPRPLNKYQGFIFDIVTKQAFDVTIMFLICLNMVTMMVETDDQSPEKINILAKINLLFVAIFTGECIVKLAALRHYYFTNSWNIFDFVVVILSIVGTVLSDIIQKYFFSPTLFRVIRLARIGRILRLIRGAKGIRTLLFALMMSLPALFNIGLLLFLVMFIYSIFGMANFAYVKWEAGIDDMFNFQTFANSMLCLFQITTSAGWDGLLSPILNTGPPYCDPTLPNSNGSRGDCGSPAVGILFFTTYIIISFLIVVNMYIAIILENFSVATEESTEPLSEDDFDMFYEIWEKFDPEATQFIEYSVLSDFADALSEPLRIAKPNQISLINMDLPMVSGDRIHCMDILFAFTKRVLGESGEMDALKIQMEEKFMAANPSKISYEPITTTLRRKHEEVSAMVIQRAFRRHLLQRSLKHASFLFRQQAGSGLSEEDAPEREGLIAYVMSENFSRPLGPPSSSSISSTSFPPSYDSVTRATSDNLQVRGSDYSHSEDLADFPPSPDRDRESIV
Summary of the method: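 IC50 derived from concentration-response of inward current at the 20th of 20 action-potential-mimicking pulses (holding −80 mV, leak corrected with −100 mV step). HEK293 cells stably expressing human Nav1.5, room temperature, extracellular pH 7.4, intracellular CsF-based pH 7.3, 0.1% DMSO.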

[3] = HEK293A cells stably expressing human Nav1.7 and human Navβ1, automated patch clamp QPatch16X
[4] = HEK293 cells stably expressing human Nav1.5, automated patch clamp QPatch16X
[5] = human Nav1.7, automated patch clamp
[6] = human Nav1.5, automated patch clamp

Chain of human Nav1.7 (Q15858 whole entry): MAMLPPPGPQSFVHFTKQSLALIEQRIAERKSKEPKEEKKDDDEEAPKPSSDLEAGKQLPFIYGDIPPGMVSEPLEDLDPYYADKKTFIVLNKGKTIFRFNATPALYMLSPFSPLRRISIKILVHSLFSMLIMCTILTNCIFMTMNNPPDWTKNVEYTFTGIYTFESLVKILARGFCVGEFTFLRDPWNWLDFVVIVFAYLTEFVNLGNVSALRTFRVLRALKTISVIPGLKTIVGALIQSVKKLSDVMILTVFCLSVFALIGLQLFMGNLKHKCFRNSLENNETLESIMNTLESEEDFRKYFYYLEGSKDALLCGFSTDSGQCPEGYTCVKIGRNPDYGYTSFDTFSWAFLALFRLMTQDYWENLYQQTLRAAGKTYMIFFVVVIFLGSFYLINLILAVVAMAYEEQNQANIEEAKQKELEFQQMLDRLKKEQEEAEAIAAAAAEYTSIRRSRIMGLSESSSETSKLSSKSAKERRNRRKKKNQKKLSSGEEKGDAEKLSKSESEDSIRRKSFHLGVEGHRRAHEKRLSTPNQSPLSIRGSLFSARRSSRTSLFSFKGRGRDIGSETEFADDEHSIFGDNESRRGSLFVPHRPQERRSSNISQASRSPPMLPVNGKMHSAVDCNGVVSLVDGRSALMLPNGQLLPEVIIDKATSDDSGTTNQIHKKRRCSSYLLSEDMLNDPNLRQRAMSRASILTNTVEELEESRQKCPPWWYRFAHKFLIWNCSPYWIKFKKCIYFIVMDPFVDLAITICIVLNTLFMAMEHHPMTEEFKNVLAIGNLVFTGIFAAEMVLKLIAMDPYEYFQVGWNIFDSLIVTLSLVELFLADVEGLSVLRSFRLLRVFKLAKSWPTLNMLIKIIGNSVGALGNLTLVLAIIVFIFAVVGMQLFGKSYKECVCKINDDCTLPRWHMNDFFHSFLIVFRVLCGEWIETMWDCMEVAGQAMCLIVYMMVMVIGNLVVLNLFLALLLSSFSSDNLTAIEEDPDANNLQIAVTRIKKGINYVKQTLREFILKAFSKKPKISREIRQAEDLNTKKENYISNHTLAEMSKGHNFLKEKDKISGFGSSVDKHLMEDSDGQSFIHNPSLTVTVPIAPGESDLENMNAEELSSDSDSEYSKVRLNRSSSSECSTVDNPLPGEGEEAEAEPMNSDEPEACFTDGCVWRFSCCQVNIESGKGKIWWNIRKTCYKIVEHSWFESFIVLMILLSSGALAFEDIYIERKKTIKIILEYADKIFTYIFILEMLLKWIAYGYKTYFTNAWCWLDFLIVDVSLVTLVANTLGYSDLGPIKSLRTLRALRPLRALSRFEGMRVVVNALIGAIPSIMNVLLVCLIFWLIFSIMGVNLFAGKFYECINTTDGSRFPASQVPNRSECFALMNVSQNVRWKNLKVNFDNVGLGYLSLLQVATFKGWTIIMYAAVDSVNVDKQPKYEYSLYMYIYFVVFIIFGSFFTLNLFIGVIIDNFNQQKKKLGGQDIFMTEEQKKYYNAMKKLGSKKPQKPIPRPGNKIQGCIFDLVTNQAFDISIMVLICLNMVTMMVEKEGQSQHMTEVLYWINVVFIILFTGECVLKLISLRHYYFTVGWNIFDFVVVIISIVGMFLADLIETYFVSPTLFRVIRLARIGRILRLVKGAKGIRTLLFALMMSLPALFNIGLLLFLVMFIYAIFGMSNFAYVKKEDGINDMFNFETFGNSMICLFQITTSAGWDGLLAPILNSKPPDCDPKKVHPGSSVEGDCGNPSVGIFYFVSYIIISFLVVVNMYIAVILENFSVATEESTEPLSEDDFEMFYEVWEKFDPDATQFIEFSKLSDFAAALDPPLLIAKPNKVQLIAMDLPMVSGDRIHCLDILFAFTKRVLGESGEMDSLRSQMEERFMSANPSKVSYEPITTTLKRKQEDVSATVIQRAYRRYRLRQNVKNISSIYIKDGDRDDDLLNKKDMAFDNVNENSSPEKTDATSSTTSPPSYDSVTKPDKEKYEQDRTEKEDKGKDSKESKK
Chain of human Nav1.7 (Q07699 19-218 partner): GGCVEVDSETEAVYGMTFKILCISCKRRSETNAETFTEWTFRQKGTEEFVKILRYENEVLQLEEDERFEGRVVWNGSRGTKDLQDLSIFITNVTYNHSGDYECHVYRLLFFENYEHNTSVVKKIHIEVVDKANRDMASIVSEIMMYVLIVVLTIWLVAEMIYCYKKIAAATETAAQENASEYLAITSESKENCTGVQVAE

IC50 [1, 3] [nM]	IC50 [1, 5] [nM]	Compound	IC50 [2, 4] [nM]	IC50 [2, 6] [nM]
< 1000		O=C(N[C@H]1COc2ccc(Cl)cc2C1)c1cc2n(n1)CCC(COc1ccccn1)O2 (stereo partly shown) [Example 117]	< 1000	
< 1000		O=C(N[C@H]1COc2ccc(CC(F)F)cc2C1)c1cc2n(n1)CCC(COCC(F)(F)F)O2 (stereo partly shown) [Example 126]	1000 to 3000	
	< 10000	O=C(N[C@H]1COc2ccc(CC(F)F)cc2C1)c1cc2n(n1)CC(CCOC(F)F)O2 (single isomer, unassigned) [219 (isomer A)]		≥ 3000
< 10000		CCC1CCn2nc(C(=O)N[C@H]3COc4ccc(C#N)cc4C3)cc2O1 (stereo partly shown) [Example 91]	≥ 3000	
< 1000		COc1cccc(C2CCc3nc(C(=O)N[C@H]4COc5ccccc5C4)cn3C2)n1 (stereo partly shown) [Example 27]	< 1000	
	< 1000	O=C(N[C@H]1COc2ccc(Cl)cc2C1)c1cc2n(n1)CC(CCN1CC(F)(F)C1)O2 (single isomer, unassigned) [234 (isomer A)]		≥ 3000
	< 1000	N#Cc1ccc2c(c1)C[C@@H](NC(=O)c1cc3n(n1)CC(CCOCC1CC1)O3)CO2 (single isomer, unassigned) [202 (isomer A)]		≥ 3000
< 10000		O=C(N[C@H]1COc2ccccc2C1)c1cn2c(n1)CNC(C1CCCC1)C2 (stereo partly shown) [Example 59]	≥ 3000	
< 1000		O=C(NC1COc2cccc(Br)c2C1)c1cn2c(n1)CCC(C(F)(F)F)C2 (single isomer, unassigned) [9 (isomer B)]	≥ 3000	
	< 1000	N#Cc1ccc2c(c1)C[C@@H](NC(=O)c1cc3n(n1)CCC(COCC(F)(F)C(F)(F)F)O3)CO2 (stereo partly shown) [Example 412]		1000 to 3000
	< 1000	O=C(N[C@H]1COc2ccc(Cl)cc2C1)c1nn2c(c1-c1ccccc1)OCCCC2 [Example 481]		≥ 3000
	< 10000	O=C(N[C@H]1COc2ccc(C(F)(F)F)cc2C1O)c1cc2n(n1)CCC(COCC(F)(F)F)CO2 (single isomer, unassigned) [Example 683]		≥ 3000
< 1000		O=C(N[C@H]1COc2ccc(COCC(F)(F)F)cc2C1)c1cc2n(n1)CCC(COCC(F)(F)F)O2 (mixture of isomers) [Example 128, 5-((2,2,2-trifluoroethoxy)methyl)-N—((R)-6-((2,2,2-trifluoroethoxy)methyl)chroman-3-yl)-6,7-dihydro-5H-pyrazolo[5,1-b][1,3]oxazine-2-carboxamide]	1000 to 3000	
< 1000		N#Cc1ccc2c(c1)C[C@@H](NC(=O)c1cc3n(n1)CCC(COCC1CC1)O3)CO2 (mixture of isomers) [Example 102, N—((R)-6-cyanochroman-3-yl)-5-((cyclopropylmethoxy)methyl)-6,7-dihydro-5H-pyrazolo[5,1-b][1,3]oxazine-2-carboxamide]	≥ 3000	
< 1000		CCC1CCn2nc(C(=O)N[C@H]3COc4ccc(Cl)cc4C3)cc2O1 (stereo partly shown) [Example 90]	1000 to 3000	
< 1000		CC1CCn2nc(C(=O)N[C@H]3COc4ccc(Cl)cc4C3)cc2O1 (stereo partly shown) [Example 85]	≥ 3000	
	< 1000	N#Cc1ccc2c(c1)C[C@@H](NC(=O)c1cc3n(n1)CCN(Cc1ccccc1F)C3)CO2 [Example 497]		≥ 3000
< 1000		CC1(COCC2CCn3nc(C(=O)N[C@H]4COc5ccc(C#N)cc5C4)cc3O2)CC1 (single isomer, unassigned) [113 (isomer A)]	1000 to 3000	
< 1000		O=C(N[C@H]1COc2ccc(-c3ccccn3)cc2C1)c1cc2n(n1)CCC(COCC1CC1)O2 (single isomer, unassigned) [111 (isomer A)]	1000 to 3000	
< 1000		CCCC1CCn2nc(C(=O)N[C@H]3COc4ccc(C#N)cc4C3)cc2O1 (single isomer, unassigned) [95 (isomer A)]	≥ 3000	
	< 10000	O=C(N[C@H]1COc2ccc(C(F)F)cc2C1)c1cc2n(n1)CCN(Cc1ccccn1)C2 [Example 492]		≥ 3000
	< 1000	O=C(N[C@H]1COc2ccc(COCC(F)(F)F)cc2C1)c1cc2n(n1)CC(COC(F)(F)F)O2 (single isomer, unassigned) [196 (isomer B)]		≥ 3000
	< 1000	O=C(N[C@H]1COc2ccc(Cl)cc2C1)c1cc2n(n1)CCC(C(F)F)O2 (single isomer, unassigned) [158 (isomer A)]		≥ 3000
	< 10000	N#Cc1cccc2c1CC(NC(=O)c1cn3c(n1)CCC(C(F)(F)F)C3)CO2 (stereo not shown) [Example 294]		≥ 3000
	< 10000	CCNc1cccc(C2CCc3nc(C(=O)N4CCC(c5ccccc5)C4)cn3C2)n1 (stereo not shown) [Example 308]		1000 to 3000
< 1000		O=C(NC1COc2ccc(Br)cc2C1)c1cn2c(n1)CCC(C(F)(F)F)C2 (stereo not shown) [Example 12]	1000 to 3000	

IC50 [1, 3] [nM]	IC50 [1, 5] [nM]	Compound	IC50 [2, 4] [nM]	IC50 [2, 6] [nM]
	< 1000	O=C(N[C@H]1COc2ccc(CC(F)F)cc2C1)c1cc2n(n1)CCC(CCOC(F)F)O2 (stereo partly shown) [Example 147]		≥ 3000
	< 1000	N#Cc1ccc2c(c1)C[C@@H](NC(=O)c1cc3n(n1)CC(CCOC(F)(F)F)O3)CO2 (single isomer, unassigned) [209 (isomer B)]		< 1000
	< 1000	O=C(N[C@H]1COc2ccccc2C1)c1nn2c(c1-c1ccccc1)CN(CC(F)(F)F)CC2 [Example 275]		1000 to 3000
< 10000		O=C(NCCc1cccc(C(F)(F)F)c1)c1nc2n(c1-c1ccccc1)CCCC2 [Example 22]	≥ 3000	
	< 1000	O=C(N[C@H]1COc2ccc(-c3cccnc3)cc2C1)c1cc2n(n1)CCC(C(F)(F)F)O2 (stereo partly shown) [Example 375]		≥ 3000
< 10000		CN1Cc2nc(C(=O)NCCc3cccc(N4CCOCC4)c3)cn2CC1c1ccccc1 (stereo not shown) [Example 62]	≥ 3000	
	< 1000	CN1Cc2nc(C(=O)NCCc3cccc(OCC(F)(F)F)c3)cn2CC1c1ccc(C(F)(F)F)cc1 (stereo not shown) [Example 325]		≥ 3000
	< 1000	Cn1ccc(-c2c(C(=O)N[C@H]3COc4ccc(C(F)(F)F)cc4C3)nn3c2COCC3)n1 [Example 518]		1000 to 3000
	< 1000	O=C(N[C@H]1COc2ccc(-c3cnccn3)cc2C1)c1cc2n(n1)CC(CCOCC(F)(F)F)O2 (stereo partly shown) [Example 456]		1000 to 3000
< 10000		O=C(N[C@H]1COc2ccc(Cl)cc2C1)c1cc2n(n1)CCC(CN1CCOCC1)O2 (stereo partly shown) [Example 122]	≥ 3000	
	< 10000	O=C(N[C@H]1COc2ccc(CC(F)F)cc2C1)c1cc2n(n1)CCC(COCC(F)(F)F)CO2 (single isomer, unassigned) [601 (isomer B)]		≥ 3000
< 10000		O=C(N[C@H]1COc2ccc(Cl)cc2C1)c1nc2n(c1-c1ccccn1)CCOC2 [Example 66]	< 1000	
	< 1000	O=C(N[C@H]1COc2ccc(COCC(F)(F)F)cc2C1)c1cc2n(n1)CCC(C(F)F)O2 (stereo partly shown) [Example 162]		≥ 3000
	< 1000	COc1cccc(CN2CCn3nc(C(=O)N[C@H]4COc5ccc(Cl)cc5C4)cc3C2)n1 [Example 273]		≥ 3000
< 10000		COc1ncccc1C1CCc2nc(C(=O)N3CCC(c4ccccc4)C3)cn2C1 (stereo not shown) [Example 26]	≥ 3000	
	< 1000	CC(F)(F)C1CCn2nc(C(=O)N[C@H]3COc4ccc(Cl)cc4C3)cc2O1 (stereo partly shown) [Example 167]		1000 to 3000
< 10000		O=C(N[C@H]1COc2ccccc2C1)c1nc2n(c1-c1ccccc1)CCOC2 [Example 64]	< 1000	
	< 1000	O=C(N[C@H]1COc2ccc(C(F)(F)F)cc2C1)c1cc2n(n1)CCC(OCC(F)(F)F)CO2 (single isomer, unassigned) [257 (isomer A)]		≥ 3000
	< 1000	O=C(N[C@H]1COc2ccc(-c3cnccn3)cc2C1)c1cc2n(n1)CC(CCOC(F)F)O2 (single isomer, unassigned) [223 (isomer B)]		1000 to 3000
	< 1000	N#Cc1ccc2c(c1)C[C@@H](NC(=O)c1cc3n(n1)CCN(Cc1ccc(F)cc1)C3)CO2 [Example 268, (R)—N-(6-cyanochroman-3-yl)-5-(4-fluorobenzyl)-4,5,6,7-tetrahydropyrazolo[1,5-a]pyrazine-2-carboxamide]		≥ 3000
	< 10000	CN1Cc2nc(C(=O)NCC(F)(F)c3cccc(C(F)(F)F)c3)cn2CC1c1ccccc1 (stereo not shown) [Example 331]		1000 to 3000
	< 10000	O=C(N[C@H]1COc2ccc(Cl)cc2C1)c1cc2n(n1)CCC(C(F)F)O2 (stereo partly shown) [Example 157]		≥ 3000
	< 1000	O=C(N[C@H]1COc2ccc(COCC(F)(F)F)cc2C1)c1cc2n(n1)CC(CC1CCOCC1)O2 (single isomer, unassigned) [622 (isomer A)]		≥ 3000
	< 1000	O=C(NC1COc2ccc(F)cc2C1)c1cc2n(n1)CCC(c1ccccc1)O2 (stereo not shown) [Example 352]		≥ 3000
	< 1000	O=C(N[C@H]1COc2ccc(C(F)(F)F)cc2C1)c1cc2n(n1)CC(CCN1CC(F)(F)C1)O2 (single isomer, unassigned) [236 (isomer B)]		1000 to 3000
	< 10000	N#Cc1ccc2c(c1)C[C@@H](NC(=O)c1cc3n(n1)CCC(CSC(F)(F)F)O3)CO2 (stereo partly shown) [Example 155]		≥ 3000

Compound	IC50 [1, 3] [nM]	IC50 [1, 5] [nM]	IC50 [2, 4] [nM]	IC50 [2, 6] [nM]
COC1c2cc(C(F)(F)F)ccc2OC[C@@H]1NC(=O)c1cc2n(n1)CC(COCC(F)(F)F)O2 (single isomer, unassigned; isomer b) [597(isomer B)]		< 1000		1000 to 3000
